From US11840531B2, “CDK8/19 inhibitors” (JOINT STOCK COMPANY “BIOCAD”, priority 2018, dated 2023)
pIC50: −log10 of the molar value.

Assays:
KG-1 cells = assay: Antiproliferative activity, KG-1 cells (AlamarBlue); assay type: cell-based; details: Homo sapiens, KG-1, 120 h, 120 h incubation
Procedure: (§1) Antiproliferative activity of CDK8 inhibitors according to the present invention was measured in a cell-based test on continuous cell cultures MV4-11 (biphenotypic myelomonocytic leukemia, ATCC® CRL-9591™), KG-1 (acute myeloid leukemia, ATCC® CCL-246™) using a vital stain AlamarBlue (ThermoFisher, #DAL1100). The cells were grown in RPMI-1640 (PanEco, #C330p) medium with addition of 10% FBS (Gibco, #16140-071); washed and resuspended in culture medium with 10% FBS (Gibco, #16140-071) in 96-well culture plates (Corning, #3599) with ≈10×10^3 cells in […] of medium per well. The compounds in question were dissolved in DMSO and diluted with a medium with 10% FBS (Gibco, #16140-071) to a final concentration ranging from 0 to 100 μM. […] of diluted compounds were then added to each well (final DMSO concentration was less than 1%) and incubated under 5% CO2 atmosphere at 37° C. for 120 h. After incubating, 15 μL/well of AlamarBlue (ThermoFisher, #DAL1100) reagent was added, contents of plates were mixed in an orbital shaker (Biosan, Latvia) and further incubated for 3-5 h at 37° C. under 5% CO2 atmosphere. Number of living cells was estimated using a microplate spectrophotometer (Tecan Infinite M200Pro, Switzerland) measuring fluorescent signal at the excitation wavelength (λEx) of 540 nm and emission wavelength (λEm) of 590 nm.
(§2) IC50 values were calculated using Magellan 7.2 software (Tecan, Switzerland) approximating experimental points by four-parameter logistic model with the optimization by Levenberg-Marquardt (Table 6).

MV4-11 cells = assay: Antiproliferative activity, MV4-11 cells (AlamarBlue); assay type: cell-based; details: Homo sapiens, 120 h incubation, read-out: MV-4-11 IC50
Procedure: as §1, §2

CDK8/Cyclin C = CDK8/Cyclin C (Homo sapiens (Human), UniProt P49336); assay: LanthaScreen binding to recombinant CDK8/Cyclin C; details: TR-FRET, Tracer 236 10 nM, CDK8/Cyclin C 5 nM
Procedure: Capability of compounds of the present invention to bind to CDK8 protein was detected using LanthaScreen (ThermoFisher) assay. We detected FRET signal proportional to the amount of CDK8-bound fluorescently-labeled ligand (Tracer 236) that competes with inhibitor for ATP binding site. We carried out the measurements in a 15 μl reaction volume using a 384-well plate (Corning, #CLS4513). Enzyme CDK8/Cyclin C (ThermoFisher, #PR7261B) was mixed with antibodies Anti-His-tag-Biotin (ThermoFisher, #PV6090), Streptavidin-Eu (ThermoFisher, #PV6025), the resulting mixture was added to plate wells (5 MKπ/well). Final concentrations of substances were as follows: CDK8/Cyclin C—5 nM, Streptavidin-Eu—3 nM, Anti-His-tag-Biotin—3 nM. Staurosporine (S4400, Sigma) was used as a reference inhibitor, and 0.1% solution of dimethyl sulphoxide (DMSO) in reaction buffer was used as a blank, the reaction buffer comprised 250 mM HEPES (pH 7.5), 50 mM MgCl2, 5 mM EGTA, and 0.05% Brij-35.
The inhibitors and controls in question were added to corresponding wells (5 μl/well). The plate was incubated at room temperature for 20 minutes. After incubating, 5 μl/well of tracer solution Alexa Fluor-647 (Kinase Tracer 236, ThermoFisher, #PV5592)) was added to the wells. Final concentration of tracer was 10 nM. Reaction buffer, instead of tracer solution, was used as a negative control. The plate was incubated for 40 minutes at 25° C., TR-FRET signal was then measured according to the manufacturer's guidelines on SPARK20 plate reader (Tecan, Switzerland), and the value was converted to the amount of kinase-bound tracer. IC50 values were calculated using SparkControl Magellan 1.2 software (Tecan, Switzerland) approximating experimental points by four-parameter logistic model with the optimization by Levenberg-Marquardt (Table 5).

[1] = Enzyme stability in human liver microsomes (Phase I); assay type: in vitro ADME; details: pH 7.4; 0.5 mg/mL pooled human liver microsomes, 10 μM compound, 37° C.
Procedure: Measuring of enzyme stability of the present compounds enabled estimation of their stability towards the action of Phase I biotransformation enzymes.
The rate of enzymatic decomposition of a compound was detected by incubating the reaction mixture in a dry block heater at 37° C.; the reaction mixture contained 0.5 mg/mL of pooled human liver microsomes (XenoTech, USA, cat #H6010), 10 μM of a compound, 2 mM β-nicotinamide adenine dinucleotide (Carbosynth, UK, cat #NN10871) and 4 mM of magnesium chloride in 0.1M sodium phosphate buffer (pH=7.4). The reaction was quenched with acetonitrile (100 μL of acetonitrile/100 μL of the reaction mixture). After quenching, the samples were centrifuged at 10000 rpm for 10 minutes. Supernatant fluid was tested by chromatographic technique using Agilent1200 (Agilent, USA). Chromatographic analysis was performed in a gradient elution regime with a flow rate of 1 mL/min. A graph of the logarithm of substance's peak area as a function of time was made. The dependent factor of the line corresponded to the elimination rate constant K based on which the drug's half-lif½e T and degradation rate CLint were calculated:
Based on the data obtained, candidates' enzyme stability in human liver microsomes was determined.

[2] = Stability of the compounds in human blood plasma; assay type: in vitro ADME; details: pooled human blood plasma, 10 μM, 4 hours at 37° C.
Procedure: To assess the blood plasma stability of the compounds, we used pooled human blood plasma taken from ten healthy donors. The initial candidate solution (10 mM in DMSO) was diluted with pooled blood plasma to a concentration of 10 μm (test solution). The test solution was incubated in a dry block thermostat for 4 hours at 37° C. HPLC with Agilent 1200 liquid chromatography system (Agilent, USA) was employed to determine peak areas of the compounds in test samples, said peak areas corresponding to the initial test time (prior to incubation) and the final test time (after incubation in a dry block thermostat for 4 hours at 37° C.), proteins were preliminarily precipitated with acetonitrile. Chromatographic analysis was performed in a gradient elution regime with a flow rate of 1 mL/min Substance amount in % in a sample after thermostatting was determined.
The stability of the compounds was estimated. The compounds described herein show at least 90% chemical stability, i.e. they are chemically stable in human blood plasma (Table 2).

[3] = Enzyme stability in human liver S9 fractions (Phase II); assay type: in vitro ADME; details: pH 7.4; 0.5 mg/mL pooled human liver S9 fractions, 10 μM compound, 37° C.; read-out: Enzyme stability Liver S9 fraction CLint
Procedure: Measuring of enzyme stability of the present compounds enabled estimation of their stability towards the action of Phase II biotransformation enzymes.
Enzyme degradation rate was measured by incubating the reaction mixture in a dry block thermostat at 37° C., said reaction mixture comprising 0.5 mg/mL of pooled human liver S9 fractions (XenoTech, USA, cat #H0610), 10 μM compound, 2 mM β-nicotinamide adenine dinucleotide (Carbosynth, UK, cat #NN10871) and 4 mM magnesium chloride in 0, 1 M sodium-phosphate buffer, pH=7, 4. The reaction was quenched with acetonitrile (100 μL of acetonitrile/100 μL of the reaction mixture). After quenching, the samples were centrifuged at 10000 rpm for 10 minutes. Supernatant fluid was tested by chromatographic technique using Agilent1200 (Agilent, USA). Chromatographic analysis was performed in a gradient elution regime with a flow rate of 1 mL/min A graph of the logarithm of substance's peak area as a function of time was made. The dependent factor of the line corresponded to the elimination rate constant K based on which the drug's half-life T½ and degradation rate CLint were calculated:
Based on the data obtained, candidates' enzyme stability in human liver S9 fractions was determined.

[4] = General cytotoxicity on HepG2 cells; assay type: cell-based; details: human, 72 h incubation
Procedure: The CC50 values were determined in the test for General cytotoxicity On HepG2 cells (hepatocellular carcinoma, ATCC® HB-8065™). Cells per well were seeded in 96-well plates (Corning, #3599) at a concentration ≈20×10^3 cells in 100 μL of medium and incubated for 72 h with added compounds within the range of concentrations of 200 to 0.78 μM. Cell viability was assessed using the above method.

Sequence of CDK8/Cyclin C (P49336 whole entry): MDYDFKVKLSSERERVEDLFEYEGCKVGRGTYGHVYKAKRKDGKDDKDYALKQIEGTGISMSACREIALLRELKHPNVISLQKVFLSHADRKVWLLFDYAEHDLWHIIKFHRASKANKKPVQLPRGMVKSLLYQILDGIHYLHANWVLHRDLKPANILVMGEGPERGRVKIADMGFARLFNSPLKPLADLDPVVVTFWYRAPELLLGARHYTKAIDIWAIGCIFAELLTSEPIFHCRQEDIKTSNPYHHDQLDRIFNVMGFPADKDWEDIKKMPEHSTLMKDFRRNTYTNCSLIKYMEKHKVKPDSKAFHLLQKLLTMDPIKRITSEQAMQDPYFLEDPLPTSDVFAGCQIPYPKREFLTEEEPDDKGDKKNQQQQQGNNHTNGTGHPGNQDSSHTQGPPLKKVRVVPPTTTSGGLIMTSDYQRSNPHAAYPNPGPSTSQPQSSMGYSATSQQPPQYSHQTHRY
Sequence of CDK8/Cyclin C (P24863 whole entry partner): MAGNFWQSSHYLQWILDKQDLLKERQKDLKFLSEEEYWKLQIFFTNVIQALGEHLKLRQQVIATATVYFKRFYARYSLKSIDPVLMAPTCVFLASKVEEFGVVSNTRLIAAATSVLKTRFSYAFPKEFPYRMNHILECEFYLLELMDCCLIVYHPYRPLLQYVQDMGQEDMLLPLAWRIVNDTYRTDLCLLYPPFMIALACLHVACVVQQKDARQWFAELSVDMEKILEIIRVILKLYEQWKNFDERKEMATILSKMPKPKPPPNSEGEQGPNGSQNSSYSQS

pIC50 (MV4-11 cells): 8.89 | pIC50 (CDK8/Cyclin C): 9.00 | microsomal CLint at 10 μM [1]: 7.8 µL/min/mg | Chemical stability in human blood plasma 4 h, % [2]: 100.0% | microsomal CLint at 10 μM [3]: 7.1 µL/min/mg
Structure (SMILES): CN1CCN(C(=O)Cn2cc(-c3ccc(-c4cnc(N)c5ncc(C(=O)N6CCC6)cc45)cc3)cn2)CC1 [Compound 3.53, 2-(4-(4-(8-amino-3-(azetidine-1-carbonyl)-1,7-naphthyridine-5-yl)phenyl)-1H-pyrazole-1-yl)-1-(4-methylpiperazine-1-yl)ethan-1-one]
pIC50 (KG-1 cells): 8.62 | CC50 at 72 h [4]: ~90000 nM
